These are literature values, as cited in patent publication US20250381182A1, “ALDH-2 INHIBITOR COMPOUNDS AND METHODS OF USE” (Amygdala Neurosciences, Inc., priority 2024, published 2025).

For the series the following is noted: O'Malley et al. 2021, Phase 2 study of ANS-6637; cited from earlier work.

Take `O=C(NCc1ccc(-c2cc[nH]c(=O)c2)cc1)c1c(Cl)cccc1Cl` [2,6-dichloro-N-[4-(2-oxo-1,2-dihydro-pyridin-4-yl)-benzyl]-benzamide]: the hepatotoxicity in humans result is “high levels of hepatotoxicity”.
